Measurements reported in patent publication US6759413B2, “Use of cox-2 inhibitors as gastroprokinetics” (SmithKline Beecham Corporation, priority 2000, dated 2004).

Key:
Rats = assay: Rat model of post operative ileus (methylene blue meal transit); format: in vivo; conditions: 3 mg/kg intravenous infusion; four hours post-gavage; eight rats; vehicle 49.3±1.3 cm; p<0.05
Experimental: Activity In Vivo: Rat Model of Post Operative Ileus
The selective COX-2 inhibitor 2-(4-ethoxy-phenyl)-3-(4-methanesulfonyl-phenyl)-pyrazolo[1,5-b]pyridazine was evaluated in a rat model of post-operative ileus. The methodology represents a modification of the procedure described by McGill et al, Gastroenterology 116: A1040 (1999).
Rats (fourteen) received 0.5 cc of skimmed milk with methylene blue by gavage. Either vehicle (six rats) or 2-(4-ethoxy-phenyl)-3-(4-methanesulfonyl-phenyl)-pyrazolo[1,5-b]pyridazine (eight rats) was then administered by intravenous infusion. Rats were sacrificed four hours post-gavage and the distance the methylene blue meal traversed the intestine measured. The pylorus was set at 0 cm. With vehicle treatment, the meal traversed 49.3±1.3 cm while with 2-(4-ethoxy-phenyl)-3-(4-methanesulfonyl-phenyl)-pyrazolo[1,5-b]pyridazine (3 mg/kg), the meal traversed 67.8±1.1 cm (p<0.05).

[1] = system: strips of canine fundic circular muscle; assay: Smooth muscle in vitro model: fundic circular muscle strips, relaxation/tension change; format: cell-based; conditions: 10 μM; n=6-8 strips; FIG. 2
Beagle dogs = assay: Dog model of gastric emptying (solid phase, gamma camera); format: in vivo; conditions: po for three days, measured on fourth day after am dosing; cisapride 0.14 mg/kg TID, celecoxib 2.8 mg/kg BID, 8-acetyl compound 1.2 mg/kg BID; FIG. 3
Experimental: Activity In Vivo: Dog Model of Gastric Emptying
Beagle dogs were treated for three days with test agents (po administration): placebo BID; cisapride 0.14 mg/kg TID; celecoxib 2.8 mg/kg BID; or 8-acetyl-3-(4-fluoro-phenyl)-2-(4-methanesulfonyl-phenyl)-imidazo[1,2-a]pyridine 1.2 mg/kg BID. Solid phase gastric emptying was measured on the fourth day following am dosing. The same three animals were used for evaluation of each agent, thus reducing any interanimal variations.
Isotope-labeled solid food was fed to the dogs for their morning meal and animals were then placed under a gamma camera and scans performed over the 24 to 36 hours.

dogs = assay: Dog model of lower esophageal sphincter pressure (LESP); format: in vivo; conditions: 3 days treatment, day 4 am dose; cisapride 0.14 mg/kg TID, celecoxib 1.2 mg/kg BID; FIG. 4
Experimental: Activity In Vivo: Dog Model of Lower Esophageal Sphincter Pressure (LESP) Six adult dogs were instrumented with 14 French esophagostomy tubes. Animals were treated for 3 days with placebo (BID), cisapride (0.14 mg/kg TID) or celecoxib (1.2 mg/kg BID). On day 4 dogs received their am dose of test agent and water perfused manometry catheters were inserted through the esophagostomy tubes. Lower esophageal sphincter pressures (LESPs) were then monitored.

[2] = system: strips of canine antrum circular muscles; assay: Smooth muscle in vitro model of gastric propulsion: antral circular muscle strips, acetylcholine-induced contraction; format: cell-based; conditions: 10 μM test agent; ACh 1 μM; n=4-8 strips; organ bath, Krebs solution; FIG. 1
Experimental: Smooth Muscle in vitro Model of Gastric Propulsion
Agents which stimulate antral smooth muscle activity would be expected to enhance the rate of gastric emptying by propulsion of contents in the aboral direction. By contrast, fundic relaxation could lead to delayed emptying of the stomach as the upper stomach would serve as a reservoir for gastric contents.
The effects of test agents were evaluated on strips of canine antrum circular muscles (n=4-8 strips) suspended in organ baths bathed with Krebs solution. Following establishment of baseline tension, acetylcholine (“ACh”; 1 μM), indomethacin (10 μM), or 8-acetyl-3-(4-fluoro-phenyl)-2-(4-methanesulfonyl-phenyl)-imidazo[1,2-a]pyridine (“8-Acetyl- . . . ”; 10 μM) were applied and tension changes monitored and recorded on a polygraph.

Row | Structure (SMILES) | distance the methylene blue meal traversed the intestine (pylorus = 0 cm) (Rats) [cm] | relaxation / change in tension of fundic circular muscle [1] | rate of solid phase gastric emptying (Beagle dogs) | lower esophageal sphincter pressure (LESP) compared to placebo (dogs) | sensitisation of antral circular muscle to acetylcholine-induced contractions [2]
1 | CCOc1ccc(-c2nn3ncccc3c2-c2ccc(S(C)(=O)=O)cc2)cc1 [2-(4-ethoxy-phenyl)-3-(4-methanesulfonyl-phenyl)-pyrazolo[1,5-b]pyridazine] | 67.8±1.1 |  |  |  | 
2 | CC(=O)c1cccn2c(-c3ccc(F)cc3)c(-c3ccc(S(C)(=O)=O)cc3)nc12 [8-acetyl-3-(4-fluoro-phenyl)-2-(4-methanesulfonyl-phenyl)-imidazo[1,2-a]pyridine] |  | only small changes in tension | increased the rate of gastric emptying |  | 
3 | COc1cc(N)c(Cl)cc1C(=O)NC1CCN(CCCOc2ccc(F)cc2)CC1OC (stereo not shown) [cisapride] |  |  | increased the rate of gastric emptying | increased LESP | 
4 | COc1ccc2c(c1)c(CC(=O)O)c(C)n2C(=O)c1ccc(Cl)cc1 [indomethacin] |  | near complete relaxation |  |  | enhanced acetylcholine-induced contractions
